Data reported in publication PMC7342775 (European journal of medicinal chemistry, 2020).

Legend:
α1β3γ2 GABAAR [1] = conditions: cited from earlier work; for selectivity favoring the etomidate site / selectivity favoring the R-mTFD-MPAB sites: 4-substituted propofols
α1β3γ2L GABAARs [2] = target: T1, α1β3γ2L GABAARs (Homo sapiens, UniProt P14867+P18507+P28472); assay: Modulation of [3H]muscimol binding, native HEK cell membranes
α1β3γ2 GABAAR [3] = assay: Selectivity between etomidate and R-mTFD-MPAB sites; format: binding, human
α1β3γ2L GABAARs [4] = target: T1, α1β3γ2L GABAARs; assay: Two-microelectrode voltage-clamp electrophysiology in Xenopus oocytes, wild type
α1β3 GABAARs = target: T2, α1β3 GABAARs (Homo sapiens, UniProt P14867+P28472); assay: Modulation of [3H]muscimol binding, α1β3 receptors
T2 sequence (P14867 28-456): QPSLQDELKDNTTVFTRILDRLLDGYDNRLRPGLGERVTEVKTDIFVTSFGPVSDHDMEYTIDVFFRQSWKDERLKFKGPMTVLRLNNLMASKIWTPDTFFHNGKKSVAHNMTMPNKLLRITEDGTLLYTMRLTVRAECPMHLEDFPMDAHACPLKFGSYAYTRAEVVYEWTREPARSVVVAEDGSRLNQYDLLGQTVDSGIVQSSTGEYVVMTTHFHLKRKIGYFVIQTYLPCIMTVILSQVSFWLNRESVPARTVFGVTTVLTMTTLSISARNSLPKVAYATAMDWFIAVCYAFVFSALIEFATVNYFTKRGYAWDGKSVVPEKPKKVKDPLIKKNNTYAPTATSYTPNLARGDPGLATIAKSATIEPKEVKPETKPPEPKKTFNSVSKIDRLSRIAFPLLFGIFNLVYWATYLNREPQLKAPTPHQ
T2 sequence (P28472 26-473): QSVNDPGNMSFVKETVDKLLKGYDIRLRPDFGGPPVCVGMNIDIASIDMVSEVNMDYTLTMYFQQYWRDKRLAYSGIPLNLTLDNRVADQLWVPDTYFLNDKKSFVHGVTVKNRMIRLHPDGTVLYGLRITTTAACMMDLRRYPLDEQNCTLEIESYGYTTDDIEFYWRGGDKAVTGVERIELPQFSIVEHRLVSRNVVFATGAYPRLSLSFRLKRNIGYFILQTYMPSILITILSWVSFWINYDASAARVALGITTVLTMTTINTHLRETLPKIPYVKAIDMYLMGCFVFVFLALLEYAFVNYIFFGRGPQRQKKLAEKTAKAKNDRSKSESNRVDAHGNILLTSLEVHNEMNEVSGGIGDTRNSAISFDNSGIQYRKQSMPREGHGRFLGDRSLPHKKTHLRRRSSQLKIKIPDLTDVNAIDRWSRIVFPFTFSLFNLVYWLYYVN

α1β3γ2L GABAARs [5] = target: T1, α1β3γ2L GABAARs; assay: [3H]pTFD-di-iPr-BnOH photolabeling and its inhibition; format: binding; conditions: with GABA; for inhibition of [3H]pTFD-di-iPr-BnOH photoincorporation into the β subunit: 300 μM etomidate, 30 μM allopregnanolone, fluorography
α1β3γ2L GABAARs [6] = target: T1, α1β3γ2L GABAARs; assay: Inhibition of [3H]R-mTFD-MPAB photolabeling; format: binding
α1(S270I)β3γ2L receptors = α1(S270I)β3γ2L receptors (Homo sapiens, UniProt P14867+P18507+P28472, S297I); assay: Oocyte electrophysiology, enhancement of low-GABA currents, α1 S270I mutant; format: cell-based; conditions: for enhancement of GABA currents compared to wild type: 5 μM etomidate, 8 μM R-mTFD-MPAB
Sequence of α1(S270I)β3γ2L receptors (P14867 28-456 S297I, one chain of several): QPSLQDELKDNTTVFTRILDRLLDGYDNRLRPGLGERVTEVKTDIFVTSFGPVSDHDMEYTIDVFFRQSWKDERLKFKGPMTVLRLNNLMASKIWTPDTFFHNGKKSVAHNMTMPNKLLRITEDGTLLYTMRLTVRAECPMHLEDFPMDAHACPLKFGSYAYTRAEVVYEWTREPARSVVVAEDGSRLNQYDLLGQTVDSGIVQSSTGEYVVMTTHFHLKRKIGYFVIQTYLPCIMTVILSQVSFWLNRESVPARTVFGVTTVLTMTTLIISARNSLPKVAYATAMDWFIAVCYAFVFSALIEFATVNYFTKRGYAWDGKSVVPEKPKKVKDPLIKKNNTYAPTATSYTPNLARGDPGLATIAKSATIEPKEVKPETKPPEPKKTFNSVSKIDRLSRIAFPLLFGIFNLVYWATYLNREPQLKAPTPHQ
Sequence of α1(S270I)β3γ2L receptors (P18507 40-475, one chain of several): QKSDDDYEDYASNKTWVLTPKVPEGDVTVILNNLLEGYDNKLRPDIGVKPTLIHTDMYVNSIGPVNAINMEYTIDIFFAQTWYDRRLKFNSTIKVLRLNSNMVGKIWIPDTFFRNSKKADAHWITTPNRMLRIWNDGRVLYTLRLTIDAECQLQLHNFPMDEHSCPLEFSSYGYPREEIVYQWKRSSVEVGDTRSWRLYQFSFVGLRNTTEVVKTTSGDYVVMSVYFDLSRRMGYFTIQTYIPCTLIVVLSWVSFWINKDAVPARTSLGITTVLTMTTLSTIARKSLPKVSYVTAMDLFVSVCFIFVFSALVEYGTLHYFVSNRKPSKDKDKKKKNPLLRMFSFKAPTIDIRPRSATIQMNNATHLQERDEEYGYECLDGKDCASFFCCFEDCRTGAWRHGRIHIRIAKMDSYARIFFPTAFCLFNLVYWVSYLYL

α1β3γ2L GABAARs [7] = target: T1, α1β3γ2L GABAARs; assay: Inhibition of [3H]azietomidate photolabeling; format: binding; conditions: in the presence of 300 μM etomidate
Xenopus laevis tadpoles = assay: Loss of righting reflexes; format: in vivo

T1 sequence (P18507 40-475, one chain of several): as above

SMILES: CC(C)c1cc(Cl)cc(C(C)C)c1O [4-Cl-propofol]
- selectivity favoring the etomidate site (α1β3γ2 GABAAR [1]): 4 fold

SMILES: CC(C)c1cc(C(=O)c2ccccc2)cc(C(C)C)c1O [4-benzoylpropofol]
- high affinity R-mTFD-MPAB site favored over the etomidate site (α1β3γ2 GABAAR [1]): 200 fold
- low affinity R-mTFD-MPAB site favored over the etomidate sites (α1β3γ2 GABAAR [1]): 3 fold

SMILES: OCc1ccccc1 [BnOH, benzyl alcohol]
- LoRR at lower concentrations than modulation of [3H]muscimol binding (α1β3γ2L GABAARs [2]; tadpole LoRR vs HEK cell membranes): ~20 times
- modulation of [3H]muscimol binding (α1β3γ2L GABAARs [2]; up to 50 mM): no modulation

SMILES: CC(C)c1cccc(C(C)C)c1CO [Di-iPr-BnOH, (2,6-diisopropylphenyl)methanol]
- selectivity favoring the etomidate site over R-mTFD-MPAB site (α1β3γ2 GABAAR [3]): 2–3 fold

SMILES: NCCCC(=O)O [GABA, γ-aminobutyric acid]
- elicited currents (α1β3γ2L GABAARs [4]; 1 mM GABA): 3.2 ± 1.5 μA
- Hill coefficient nH of GABA concentration-response curve (α1β3γ2L GABAARs [4]; GABA alone): 1.0 ± 0.1

SMILES: CC(=O)c1cc(C(C)C)c(O)c(C(C)C)c1 [Me–CO–]
- selectivity favoring the R-mTFD-MPAB sites (α1β3γ2 GABAAR [1]): 1.5 fold

SMILES: CC(C)c1cc(C(O)c2ccccc2)cc(C(C)C)c1O (centres unmarked) [Ph–C(OH)–]
- selectivity favoring the R-mTFD-MPAB sites (α1β3γ2 GABAAR [1]): 5.3 fold

SMILES: CC(C)c1cccc(C(C)C)c1O [Propofol]
- EC50 (α1β3 GABAARs): 7 ± 1.7 µM
- selectivity favoring the etomidate site (α1β3γ2 GABAAR [1]): 5.5 fold
- extent of inhibition of [3H]pTFD-di-iPr-BnOH photolabeling (α1β3γ2L GABAARs [5]; 300 μM, β subunit): to the same extent as the background labeling

SMILES: C=CCC1(c2cccc(C3(C(F)(F)F)N=N3)c2)C(=O)NC(=O)N(C)C1=O (centres unmarked) [R–mTFD-MPAB, (5-allyl-1-methyl-5-(3-(3-(trifluoromethyl)-3H-diazirin-3-yl)phenyl)pyrimidine-2,4,6(1H,3H,5H)-trione)]
- non-specific [3H]R-mTFD-MPAB photolabeling (Bns) (α1β3γ2L GABAARs [6]; in the presence of 60 μM R-mTFD-MPAB): 13 ± 4%
- enhancement of GABA currents compared to wild type (α1(S270I)β3γ2L receptors): significantly reduced

SMILES: CC(=O)[C@H]1CC[C@H]2[C@@H]3CC[C@H]4C[C@H](O)CC[C@]4(C)[C@H]3CC[C@]12C [allopregnanolone]
- inhibition of [3H]pTFD-di-iPr-BnOH photoincorporation into the β subunit (α1β3γ2L GABAARs [5]): little inhibition of photolabeling

SMILES: CCOC(=O)c1cncn1[C@H](C)c1ccccc1 [etomidate]
- enhancement of GABA currents compared to wild type (α1(S270I)β3γ2L receptors): comparable to that in wild-type
- non-specific [3H]azietomidate photolabeling (Bns) (α1β3γ2L GABAARs [7]): 13 ± 3%
- inhibition of [3H]pTFD-di-iPr-BnOH photoincorporation into the β subunit (α1β3γ2L GABAARs [5]): little inhibition of photolabeling

SMILES: CC(C)c1cc(C2(C(F)(F)F)N=N2)cc(C(C)C)c1CO [pTFD-di-iPr-BnOH, (2,6-diisopropyl-4-(3-(trifluoromethyl)-3H-diazirin-3-yl)phenyl)methanol]
- IC50 (α1β3γ2L GABAARs [6]): 73 ± 10 µM
- fraction of tadpoles that did not recover from anesthesia (Xenopus laevis tadpoles; at 2 μM): 4/7
- fraction of tadpoles that did not recover from anesthesia (Xenopus laevis tadpoles; at 3 μM): 6/9
- fraction of tadpoles that did not recover from anesthesia (Xenopus laevis tadpoles; at 10 μM): 7/10
- increase in LoRR potency (Xenopus laevis tadpoles; relative to Di-iPr-BnOH): 6 fold
- reduction of enhancement compared to wild type (α1(S270I)β3γ2L receptors; 10 μM pTFD-di-iPr-BnOH): more than 50%

SMILES: CC(C)c1cc(C(C)(C)C)cc(C(C)C)c1O [t-Bu–]
- selectivity favoring the R-mTFD-MPAB sites (α1β3γ2 GABAAR [1]): 8 fold
